Data from PMC9396613 (ACS chemical biology, 2022).
Blank lines part the entries; values can stand above or below the molecule they belong to. Bridge positions count the residues as written; N and C are the ends. Ends that are not written are not given here.

Key:
KCa2.3 channels [1] = target: T1, KCa2.3 channels (Homo sapiens, UniProt Q9UGI6); experiment: Inside-out patch clamp, inhibition of KCa2.3 channels by negative modulator; assay type: cell-based; conditions: read-out: IC50 for inhibition of KCa2.3 channels; 0.5 μM Ca2+; mean ± SD, n = 5
ET cells [2] = experiment: Cilia length measurement in ET cells by immunostaining; assay type: cell-based, mouse
ET cells [3] = experiment: Flow-induced cytosolic Ca2+ measurements (Fura-2AM) in ET cells; assay type: cell-based, mouse; conditions: 20 μM
KCa2.3 channels [4] = target: T1, KCa2.3 channels; experiment: Inside-out patch clamp, potentiation of human KCa2.3 channels expressed in HEK293 cells; assay type: cell-based
rat KCa2.2a channels = conditions: read-out: EC50 on rat KCa2.2a (mean ± SD); cited from earlier work

IC50 (KCa2.3 channels [1]): 970 ± 390 nM
Molecule: CC(=O)Nc1cccc2[nH]c(N[C@H](C)c3cccc(C(F)(F)F)c3)nc12 [AP14145]
cilia length (ET cells [2]; 20 μM for two days, acetylated-α-tubulin staining, mean ± SD): 2.8 ± 0.1 μm
flow-induced peak Ca2+ values compared with control (ET cells [3]): reduced
flow-induced cytosolic Ca2+ transients compared with control (ET cells [3]; shear stress 5 dyn/cm2): much weaker Ca^2+ transients

Emax on KCa2.3 channels (I / Imax (%)) (KCa2.3 channels [4]; current at −90 mV normalized to that obtained at 10 μM Ca2+, mean ± SD): 96 ± 10%
selectivity for human KCa2.3 channels over rat KCa2.2a channels (KCa2.3 channels [4]; ratio of EC50 values, Table 1): ~ 2.7 fold
EC50 (KCa2.3 channels [4]; read-out: EC50 on human KCa2.3 (mean ± SD), inside-out patch, HEK293 cells, 0.15 μM Ca2+, currents at −90 mV, mean ± SD): 2700 ± 600 nM
Molecule: Cc1cc(NC2CCCCC2)nc(-n2nc(C)cc2C)n1 [CyPPA]
EC50 (rat KCa2.2a channels): 7.5 ± 1.6 µM

Molecule: Cc1cc(C)n(-c2nc(Nc3ccc(Cl)cc3)c3ncn(C)c3n2)n1 [NS13001]
EC50 (rat KCa2.2a channels): 2.2 ± 0.5 µM

Molecule: apamin (CNCKAPETALCARRCQQH-NH2; disulfide 1-11, 3-15; UniProt P01500 28-45, looked up)
effect on cilia elongation by compound 4 (ET cells [2]; apamin 50 nM with compound 4 20 μM, Arl13b marker): completely abolished the elongating effect
